From patent US10815246B2, “Thailanstatin analogs” (priority 2017, dated 2020)

Columns and labels:
Assay type in all cases: cell-based
HCT 116 cells = experiment: In vitro cytotoxicity, CellTiter-Glo, 72 h (Example 11); details: Homo sapiens, HCT-116, 72 h
Method: Alternatively, the in vitro cytotoxicity of the compounds of the invention may be measured as described in this example. 180 μl of HCT 116 cells (ATCC, Cat # CCL-247) in McCoy's 5a Medium Modified (Sigma-Aldrich®, St. Louis, Mo.)+10% fetal bovine serum were seeded at a density of 5,000 cells/well in a white opaque 96-well plate and incubated for 24 hours at […] in a 5% CO2 incubator. Twenty-four hours post cell seeding, 20 μl of 100× test compounds were diluted such that the final concentrations of the test compounds were in μM concentration. Half log dilutions were used, starting from 10 μM through 0.0001 μM. Puromycin and […]. The cells were incubated with the compounds for 72 hours at […] in a 5% CO2 incubator. After 72 hrs, 100 μl/well of CellTiter-Glo® Luminescent Cell Viability Assay reagent (Promega, Inc., Madison, Wis.; Cat. # G7573) was added to the plates and incubated at room temperature for 30 minutes. The luminescence signals were captured using EnVision 2105 Multimode Plate Reader (PerkinElmer, Waltham, Mass.). The data were analyzed using non-linear regression curve fit (sigmoidal dose response) in GraphPad Prism software (GraphPad Software, La Jolla, Calif.) by plotting the concentration of drug on the X-axis and the mean % inhibition values on the Y-axis.

PANC 05.04 = experiment: In vitro cytotoxicity on pancreatic cancer cell line (Example 12); details: PANC 05.04 human pancreatic cancer cell line
PANC 10.05 = experiment: as above; details: Panc1005; PANC 10.05 human pancreatic cancer cell line
SW480 = experiment: In vitro cytotoxicity of toxin compounds, CellTiter-Glo, three days (Example 12); details: Homo sapiens, 72 h
Method: (§1) Various cancer cell lines were obtained from the American Type Culture Collection (ATCC®). The cells were cultured in a humidified 5% CO2 incubator in a media consisting of RPMI 1640, L-glutamine, and 10% FBS. The cells were passaged as needed using standard tissue culture techniques. The cells were harvested and plated out into 96-well tissue culture treated plates at a density of 5000 cells per well. After allowing the cells to equilibrate for ˜24 hr in a humidified 5% CO2 incubator, the cells were treated with the test compounds at the indicated concentrations. The cells were exposed to the test compounds for three days with no media change. After the treatment period, CellTiter-Glo® Luminescent Cell Viability Assay reagent solution (Promega, Inc., Madison, Wis.; Cat. # G7573) was introduced to each well. The Cell TiterGlo-containing plates were then read on a SpectroMax® iD3 Multi-Mode Microplate reader (Molecular Devices, LLC, San Jose, Calif.). The degree of luminescence was dictated by the abundance of live cells.
(§2) The following tables summarize the cytotoxicity (IC50), nM, observed for the specified toxin compounds on the indicated cancer cell lines, NCI-H23, DU145, SW480, SKOV3, A549, HT29, SK-MES-1, SKBR3, HCT116, MCF7, N87, and A431 (ATCC designations).

A431 = experiment: as above; details: Homo sapiens, A-431, 72 h
Method: as §1, §2

NCI-H23 = experiment: as above; details: Homo sapiens, 72 h
Method: as §1, §2

DU145 = experiment: as above; details: Homo sapiens, DU-145, 72 h
Method: as §1, §2

HCT116 = experiment: as above; details: Homo sapiens, HCT-116, 72 h
Method: as §1, §2

SKOV3 = experiment: as above; details: Homo sapiens, SK-OV-3, 72 h
Method: as §1, §2

MCF7 = experiment: as above; details: Homo sapiens, 72 h
Method: as §1, §2

HT29 = experiment: as above; details: Homo sapiens, HT-29, 72 h
Method: as §1, §2

SK-MES-1 = experiment: as above; details: Homo sapiens, 72 h; SK-MES-1, three days
Method: as §1, §2

SKBR3 = experiment: as above; details: Homo sapiens, SK-BR-3, 72 h
Method: as §1, §2

A549 = experiment: as above; details: Homo sapiens, 72 h
Method: as §1, §2

N87 = experiment: as above; details: 72 h
Method: as §1, §2

NCI-H69 = experiment: In vitro cytotoxicity of toxin compounds (Example 12, Table 4); details: Homo sapiens
Method: as §1
(§3) Table 4 gives the cytotoxicity data for Compounds 2, 4, and 6 on the indicated cancer cell lines, HL60, KG-1, NCI-H69, SK-MEL-1, HEL-92.1.7, and K562 (ATCC designations).

HEL-92.1.7 = experiment: as above; details: Homo sapiens
Method: as §1, §3

SK-MEL-1 = experiment: as above; details: Homo sapiens
Method: as §1, §3

K562 = experiment: as above; details: Homo sapiens
Method: as §1, §3

HL60 = experiment: as above; details: Homo sapiens, HL-60
Method: as §1, §3

`COC(=O)C[C@@H]1C[C@@]2(CO2)[C@H](O)[C@@H](/C=C/C(C)=C/C[C@@H]2O[C@H](C)[C@H](NC(=O)/C=C\C(C)OC(=O)c3ccc(F)cc3)C[C@@H]2C)O1` (stereo partly drawn) [Compound 2, (Z)-5-((2R, 3R, 5S, 6S)-6-((2E, 4E)-5-((3R, 4R, 5R, 7S)-4-hydroxy-7-(2-methoxy-2-oxoethyl)-1,6-dioxaspiro[2.5]octan-5-yl)-3-methylpenta-2,4-dienyl)-2,5-dimethyltetrahydro-2H-pyran-3-ylamino)-5-oxopent-3-en-2-yl 4-fluorobenzoate] was tested, and the IC50 (HCT 116 cells) was 7 nM, the IC50 (PANC 05.04) was 2 nM and the IC50 (PANC 10.05) was 21 nM. For the same compound, the IC50 (SW480) was 20.2 nM, the IC50 (A431) was 9.1 nM and the IC50 (NCI-H23) was 1.3 nM. The IC50 (DU145) was 27.5 nM, the IC50 (HCT116) was 8.9 nM and the IC50 (SKOV3) was 57.2 nM. For the same compound, the IC50 (MCF7) was 32.4 nM, the IC50 (HT29) was 22.5 nM and the IC50 (SK-MES-1) was 113 nM. The IC50 (SKBR3) was 166 nM, the IC50 (A549) was 38.3 nM and the IC50 (N87) was 14.9 nM. The IC50 (NCI-H69) was 0.96 nM, the IC50 (HEL-92.1.7) was 0.71 nM and the IC50 (SK-MEL-1) was 3.26 nM. For the same compound, the IC50 (K562) was 0.58 nM and the IC50 (HL60) was 0.08 nM.

In the case of `COC(=O)C[C@@H]1C[C@@]2(CO2)[C@H](O)[C@@H](/C=C/C(C)=C/C[C@@H]2O[C@H](C)[C@H](NC(=O)/C=C\C(C)OC(=O)c3ccccc3)C[C@@H]2C)O1` (stereo partly drawn) [Compound 1, (Z)-5-((2R, 3R, 5S, 6S)-6-((2E, 4E)-5-((3R, 4R, 5R, 7S)-4-hydroxy-7-(2-methoxy-2-oxoethyl)-1,6-dioxaspiro[2.5]octan-5-yl)-3-methylpenta-2,4-dienyl)-2,5-dimethyltetrahydro-2H-pyran-3-ylamino)-5-oxopent-3-en-2-yl benzoate], the IC50 (HCT 116 cells) is reported as 19 nM, the IC50 (PANC 05.04) is reported as 22 nM and the IC50 (PANC 10.05) is reported as 65 nM.

In the case of `COC(=O)C[C@@H]1C[C@@]2(CO2)[C@H](O)[C@@H](/C=C/C(C)=C/C[C@@H]2O[C@H](C)[C@H](NC(=O)/C=C\C(C)c3ccon3)C[C@@H]2C)O1` (stereo partly drawn) [Compound 4, Methyl 2-((3R, 5S, 7R, 8R)-8-hydroxy-7-((1E, 3E)-5-((2S,3S,5R,6R)-5-((Z)-4-(isoxazol-3-yl)pent-2-enamido)-3,6-dimethyltetrahydro-2H-pyran-2-yl)-3-methylpenta-1,3-dien-1-yl)-1,6-dioxaspiro[2.5]octan-5-yl)acetate], the IC50 (HCT 116 cells) is reported as 330 nM, the IC50 (PANC 05.04) is reported as 4 nM and the IC50 (PANC 10.05) is reported as 7.19 nM. It also gave an IC50 (SW480) of 2.2 nM, an IC50 (A431) of 0.7 nM and an IC50 (NCI-H23) of 0.2 nM. The IC50 (DU145) was 1.9 nM, the IC50 (HCT116) was 1 nM and the IC50 (SKOV3) was 6.7 nM. The IC50 (MCF7) was 2.1 nM, the IC50 (HT29) was 1.3 nM and the IC50 (SK-MES-1) was 7.5 nM. The IC50 (SKBR3) was 9.5 nM, the IC50 (A549) was 2.8 nM and the IC50 (N87) was 1.6 nM. The IC50 (NCI-H69) was 0.63 nM, the IC50 (SK-MEL-1) was 0.42 nM and the IC50 (K562) was 0.11 nM. It also gave an IC50 (HL60) of 0.05 nM.

`COC(=O)C[C@@H]1C[C@@]2(CO2)[C@H](O)[C@@H](/C=C/C(C)=C/C[C@@H]2O[C@H](C)[C@H](NC(=O)/C=C\C(C)n3nc(C)nc3C)C[C@@H]2C)O1` (stereo partly drawn) [Compound 3, Methyl 2-((3R, 5S, 7R, 8R)-7-((1E, 3E)-5-((2S, 3S, 5R, 6R)-5-((Z)-4-(3,5-dimethyl-1H-1,2,4-triazol-1-yl)pent-2-enamido)-3,6-dimethyltetrahydro-2H-pyran-2-yl)-3-methylpenta-1,3-dienyl)-8-hydroxy-1,6-dioxaspiro[2.5]octan-5-yl)acetate] gave an IC50 (HCT 116 cells) of 390 nM, an IC50 (PANC 05.04) of 435 nM and an IC50 (PANC 10.05) of over 2000 nM.
